Drawing on the NIST ThermoML archive (doi:10.1021/je050428j), this text covers mass density for 6 compounds.

Numbers after ± are expanded uncertainties.

In general, mass density refers to the mass of a sample divided by its volume.

The conditions of this data set: 298.15 K; 101.33 kPa; Liquid; Vibrating tube method.
For the compound `CC(=O)N(C)C` [N,N-dimethylethanamide], the mass density was 936.214 ± 0.48 kg/m3.

As for `CN(C)C=O` [dimethylformamide], the mass density stood at 943.875 ± 0.25 kg/m3.

`CCCCCCC` [heptane]: the mass density was found to be 679.627 ± 0.27 kg/m3.

With `CCCCCCCC` [octane], the mass density amounted to 698.636 ± 0.41 kg/m3.

Take `CCCCCC` [hexane]: the mass density came to 655.248 ± 0.28 kg/m3.

For `CCCCCCCCC` [nonane], the mass density is 714.064 ± 0.41 kg/m3.
